Reference: the supplement of paper PMC10307832

Key:
Assay in all cases: relative viability (nuclei count vs DMSO), 5 days (fraction); higher = more cells survive
[1] = compound: Cc1ccccc1C(C(=O)NC1CCCCC1)N(C(=O)Cn1ccnc1C)c1cccc(F)c1 [IDH-C35] + COc1cccc2cc(-c3nc([C@H]4CC[C@H](C(=O)O)CC4)n4ncnc(N)c34)[nH]c12 [OSI-027] (partner 0.5 µM)
Procedure, shortened: (§1)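 For relative viability, nuclei counts in treated wells were divided by those in vehicle wells. Lung cancer cell lines had been pin-tool dosed in 1536-well plates the day after seeding and cultured for 5 days, then fixed and stained in one step (final 0.05% Triton X-100, 1% formaldehyde, 1 ug/ml Hoechst) and imaged at 4×. Doses were one drug alone or a fixed anchor-drug dose plus five library-drug doses (not always all listed) in √10 steps, and values are duplicate-plate medians.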

[2] = compound: Cc1ccccc1C(C(=O)NC1CCCCC1)N(C(=O)Cn1ccnc1C)c1cccc(F)c1 [IDH-C35] + O=C(CCCCCCC(=O)Nc1ccccc1)NO [Vorinostat] (partner 1 µM)
Procedure, shortened: as §1

[3] = compound: Cc1ccccc1C(C(=O)NC1CCCCC1)N(C(=O)Cn1ccnc1C)c1cccc(F)c1 [IDH-C35] + Cc1nc(NC(=O)N2CCC[C@H]2C(N)=O)sc1-c1ccnc(C(C)(C)C(F)(F)F)c1 [Alpelisib] (partner 2 µM)
Procedure, shortened: as §1

[4] = compound: Cc1ccccc1C(C(=O)NC1CCCCC1)N(C(=O)Cn1ccnc1C)c1cccc(F)c1 [IDH-C35] + C[C@]1(O)C[C@@H](c2nc(-c3ccc4ccc(-c5ccccc5)nc4c3)c3c(N)nccn32)C1 [Linsitinib] (partner 1 µM)
Procedure, shortened: as §1

Cell Line | relative viability ([1]; first compound 0.08 µM) | relative viability ([1]; first compound 0.253 µM) | relative viability ([1]; first compound 0.8 µM) | relative viability ([1]; first compound 2.53 µM) | relative viability ([1]; first compound 8 µM) | relative viability ([2]; first compound 0.08 µM) | relative viability ([2]; first compound 0.253 µM) | relative viability ([2]; first compound 0.8 µM) | relative viability ([2]; first compound 2.53 µM) | relative viability ([2]; first compound 8 µM) | relative viability ([3]; first compound 0.08 µM) | relative viability ([3]; first compound 0.253 µM) | relative viability ([3]; first compound 0.8 µM) | relative viability ([3]; first compound 2.53 µM) | relative viability ([3]; first compound 8 µM) | relative viability ([4]; first compound 0.08 µM) | relative viability ([4]; first compound 0.253 µM) | relative viability ([4]; first compound 0.8 µM) | relative viability ([4]; first compound 2.53 µM) | relative viability ([4]; first compound 8 µM)
NCI-H1650 | 0.667 | 0.593 | 0.637 | 0.659 | 0.571 | 0.685 | 0.491 | 0.569 | 0.588 | 0.84 | – | – | – | – | – | – | – | – | – | –
BEN | 0.308 | 0.318 | 0.298 | 0.328 | 0.261 | 0.576 | 0.608 | 0.618 | 0.568 | 0.593 | 0.988 | 0.927 | 0.885 | 0.975 | 0.942 | 0.831 | 0.899 | 0.813 | 0.906 | 0.99
EMC-BAC-2 | 0.364 | 0.366 | 0.383 | 0.39 | 0.385 | 0.474 | 0.464 | 0.47 | 0.528 | 0.542 | 0.79 | 0.665 | 0.739 | 0.756 | 0.709 | 0.797 | 0.799 | 0.798 | 0.777 | 0.812
LU99A | 0.335 | 0.329 | 0.276 | 0.293 | 0.286 | 0.533 | 0.422 | 0.483 | 0.481 | 0.505 | 0.49 | 0.514 | 0.553 | 0.517 | 0.562 | 0.569 | 0.536 | 0.506 | 0.593 | 0.6
ABC-1 | 0.528 | 0.516 | 0.582 | 0.531 | 0.441 | 1.12 | 1.07 | 0.941 | 1.23 | 1.3 | 0.907 | 1.03 | 1 | 1.05 | 0.857 | 0.898 | 0.856 | 0.913 | 0.767 | 0.746
NCI-H2170 | 0.669 | 0.661 | 0.739 | 0.71 | 0.676 | 0.796 | 0.809 | 0.804 | 0.844 | 0.85 | 0.798 | 0.776 | 0.832 | 0.795 | 0.788 | – | – | – | – | –
NCI-H1299 | – | – | – | – | – | – | – | – | – | – | 1.06 | 1.02 | 1.09 | 1.05 | 1.04 | 1.11 | 0.969 | 0.976 | 1 | 0.957
EBC-1 | – | – | – | – | – | – | – | – | – | – | 0.879 | 0.826 | 0.843 | 0.867 | 0.738 | 1.04 | 0.949 | 1.02 | 0.867 | 0.852
NCI-H2347 | 0.467 | 0.48 | 0.477 | 0.324 | 0.369 | 0.4 | 0.682 | 0.531 | 0.59 | 0.656 | 1.14 | 1.12 | 1.03 | 1.16 | 1.03 | 0.973 | 0.932 | 1.01 | 0.987 | 0.918
NCI-H1993 | 0.522 | 0.532 | 0.57 | 0.505 | 0.555 | 0.726 | 0.717 | 0.77 | 1.08 | 0.897 | 0.667 | 0.732 | 0.63 | 0.768 | 0.711 | 0.758 | 0.776 | 0.817 | 0.745 | 0.798
NCI-H322M | 0.585 | 0.566 | 0.628 | 0.549 | 0.511 | 0.875 | 0.866 | 0.798 | 0.911 | 0.922 | 0.878 | 0.818 | 0.743 | 0.806 | 0.837 | 0.965 | 0.878 | 0.81 | 0.95 | 0.794
NCI-H838 | 0.406 | 0.402 | 0.369 | 0.383 | 0.398 | 0.706 | 0.675 | 0.718 | 0.763 | 0.72 | 1.03 | 0.92 | 0.951 | 0.93 | 0.949 | 1.08 | 0.959 | 0.949 | 1.04 | 0.943
HARA | 0.607 | 0.735 | 0.484 | – | 0.405 | 0.624 | 0.436 | 0.517 | – | 0.525 | 0.727 | 0.8 | 0.874 | 0.78 | 0.729 | 0.993 | 0.933 | 1.04 | 0.988 | 0.907
NCI-H2342 | 0.564 | 0.629 | 0.564 | 0.616 | 0.587 | 0.817 | 0.712 | 0.793 | 0.715 | 0.806 | – | – | – | – | – | – | – | – | – | –
NCI-H1792 | 0.725 | 0.718 | 0.705 | 0.742 | 0.75 | – | – | – | – | – | 0.655 | 0.727 | 0.669 | 0.741 | 0.827 | 0.522 | 0.508 | 0.486 | 0.555 | 0.66
ChaGo-K-1 | 0.604 | 0.523 | 0.529 | 0.637 | 0.572 | 0.758 | 0.814 | 0.8 | 0.586 | 0.68 | – | – | – | – | – | – | – | – | – | –
A549 | – | – | – | – | – | – | – | – | – | – | 0.734 | 0.871 | 0.771 | 0.744 | 0.726 | 0.624 | 0.55 | 0.504 | 0.502 | 0.585
NCI-H1563 | 0.769 | 0.721 | 0.788 | 0.768 | 0.727 | – | – | – | – | – | 0.947 | 0.877 | 1.01 | 0.84 | 0.925 | 1.15 | 1.3 | 1.15 | 1.2 | 1.16
SW 900 | 0.496 | 0.584 | 0.601 | 0.353 | 0.625 | 0.496 | 0.44 | – | 0.505 | 0.529 | – | – | – | – | – | – | – | – | – | –
IA-LM | – | – | – | – | – | 1 | 0.878 | 0.881 | – | 1.05 | 0.998 | 0.9 | 0.793 | 0.761 | 0.584 | 0.876 | 0.776 | 0.628 | 0.621 | 0.589
NCI-H1703 | – | – | – | – | – | – | – | – | – | – | 0.379 | 0.372 | 0.405 | 0.343 | 0.309 | 0.821 | 0.787 | 0.632 | 0.778 | 0.536
NCI-H1648 | 0.289 | 0.234 | 0.274 | 0.275 | 0.257 | – | 0.415 | 0.523 | 0.443 | 0.525 | – | – | – | – | – | – | – | – | – | –
